Strand notation (5' to 3'): a small letter for the sugar, then the base; units joined by * are phosphorothioate-linked, units joined directly phosphodiester-linked; [ ] holds rarer units or linkages, { } end groups; capitals alone tell only the bases. k = constrained ethyl (cEt); [5mC] = 5-methylcytosine; d = 2'-deoxy (DNA)
What was measured:
Type in all cases: cell-based, human
Yap1 mRNA [1] = experiment: Yap1 mRNA in NCI H747 cells, RNA analysis (Example 31); details: free uptake, approximately 48 hours
Experimental: Modified oligonucleotides described in the studies above were tested at various doses in colorectal adenocarcinoma cell line NCI H747. A control oligonucleotide 792169 was also tested.
Cultured NCI H747 cells at a density of 10,000 cells per well were treated using free uptake with modified oligonucleotides diluted to concentrations described in the tables below. After approximately 48 hours, Yap1 mRNA levels were measured as previously described using the Human Yap1 primer-probe set RTS4814. Yap1 mRNA levels were normalized to actin-beta content, as measured by primer probe set RTS5002. Results are presented in the tables below as percent control of the amount of Yap1 mRNA relative to untreated control cells (% UTC).

Yap1 mRNA [2] = experiment: Yap1 mRNA in UPCI:SCC090 cells, RNA analysis (Example 47); details: free uptake, approximately 48 hours
Experimental: Modified oligonucleotides described in the studies above were tested at various doses in tongue squamous cell carcinoma cell line UPCI:SCC090. A control oligonucleotide 792169, described herein above, was also tested.
Cultured UPCI:SCC090 cells at a density of 5000 cells per well were treated using free uptake with modified oligonucleotides diluted to concentrations described in the tables below. After approximately 48 hours, Yap1 mRNA levels were measured as previously described using the Human Yap1 primer-probe set RTS4814. Yap1 mRNA levels were normalized to actin-beta content, as measured by primer probe set RTS5002. Results are presented in the tables below as percent control of the amount of Yap1 mRNA relative to untreated control cells (% UTC).

Yap1 mRNA [3] = experiment: Yap1 mRNA in CAL27 cells, RNA analysis (Example 37); details: free uptake, approximately 48 hours
Experimental: Modified oligonucleotides described in the studies above were tested at various doses in tongue squamous cell carcinoma line CAL27. A control oligonucleotide 792169, described herein above, was also tested.
Cultured CAL27 cells at a density of 5000 cells per well were treated using free uptake with modified oligonucleotides diluted to concentrations described in the tables below. After approximately 48 hours, Yap1 mRNA levels were measured as previously described using the Human Yap1 primer-probe set RTS4814. Yap1 mRNA levels were normalized to actin-beta content, as measured by primer probe set RTS5002. Results are presented in the tables below as percent control of the amount of Yap1 mRNA relative to untreated control cells (% UTC).

Detroit-562 cells = experiment: Cell proliferation assay in Detroit-562 cells, CellTiter-Glo (Example 38); details: free uptake, approximately 144 hours
Experimental: Modified oligonucleotides described in the studies above were tested at various doses in pharynx carcinoma cell line Detroit-562. A control oligonucleotide 792169, described herein above, was also tested.
Cultured Detroit-562 cells at a density of 1000 cells/well were treated using free uptake with modified oligonucleotides diluted to concentrations described in the tables below. After approximately 144 hours, cell proliferation was measured using the luminescent cell viability CellTiter-Glo® 2.0 Assay (Promega). Results are presented in the tables below as percent control of the amount of luminescence in samples treated with modified oligonucleotides relative to untreated control cells (% UTC).

BICR56 cells = experiment: Cell proliferation assay in BICR56 cells, CellTiter-Glo (Example 33); details: free uptake, approximately 144 hours
Experimental: Modified oligonucleotides described in the studies above were tested at various doses in squamous cell carcinoma adherent keratinocyte cell line BICR56. A control oligonucleotide 792169 was also tested.
Cultured BICR56 cells at a density of 1000 cells/well were treated using free uptake with modified oligonucleotides diluted to concentrations described in the tables below. After approximately 144 hours, cell proliferation was measured using the luminescent cell viability CellTiter-Glo® 2.0 Assay (Promega). Results are presented in the tables below as percent control of the amount of luminescence in samples treated with modified oligonucleotides relative to untreated control cells (% UTC).

Yap1 mRNA [4] = experiment: Yap1 mRNA in SNU-899 cells, RNA analysis (Example 43); details: free uptake, approximately 48 hours
Experimental: Modified oligonucleotides described in the studies above were tested at various doses in laryngeal squamous cell carcinoma cell line SNU-899. A control oligonucleotide 792169, described herein above, was also tested.
Cultured SNU-899 cells at a density of 5000 cells per well were treated using free uptake with modified oligonucleotides diluted to concentrations described in the tables below. After approximately 48 hours, Yap1 mRNA levels were measured as previously described using the Human Yap1 primer-probe set RTS4814. Yap1 mRNA levels were normalized to actin-beta content, as measured by primer probe set RTS5002. Results are presented in the tables below as percent control of the amount of Yap1 mRNA relative to untreated control cells (% UTC).

CAL33 cells = experiment: Cell proliferation assay in CAL33 cells, CellTiter-Glo (Example 36); details: free uptake, approximately 144 hours
Experimental: Modified oligonucleotides described in the studies above were tested at various doses in tongue squamous cell carcinoma line CAL33. A control oligonucleotide 792169, described herein above, was also tested.
Cultured CAL33 cells at a density of 1000 cells/well were treated using free uptake with modified oligonucleotides diluted to concentrations described in the tables below. After approximately 144 hours, cell proliferation was measured using the luminescent cell viability CellTiter-Glo® 2.0 Assay (Promega). Results are presented in the tables below as percent control of the amount of luminescence in samples treated with modified oligonucleotides relative to untreated control cells (% UTC).

Yap1 mRNA [5] = experiment: Yap1 mRNA in SNU-1066 cells, RNA analysis (Example 44); details: free uptake, approximately 48 hours
Experimental: Modified oligonucleotides described in the studies above were tested at various doses in laryngeal squamous cell carcinoma line SNU-1066. A control oligonucleotide 792169, described herein above, was also tested.
Cultured SNU-1066 cells at a density of 5000 cells per well were treated using free uptake with modified oligonucleotides diluted to concentrations described in the tables below. After approximately 48 hours, Yap1 mRNA levels were measured as previously described using the Human Yap1 primer-probe set RTS4814. Yap1 mRNA levels were normalized to actin-beta content, as measured by primer probe set RTS5002. Results are presented in the tables below as percent control of the amount of Yap1 mRNA relative to untreated control cells (% UTC).

Substance | human Yap1 mRNA expression (Yap1 mRNA [1]; 0.04 μM) | human Yap1 mRNA expression (Yap1 mRNA [1]; 0.2 μM) | human Yap1 mRNA expression (Yap1 mRNA [1]; 1 μM) | human Yap1 mRNA expression (Yap1 mRNA [1]; 5 μM) | human Yap1 mRNA expression (Yap1 mRNA [2]; 0.04 μM) | human Yap1 mRNA expression (Yap1 mRNA [2]; 0.2 μM) | human Yap1 mRNA expression (Yap1 mRNA [2]; 1 μM) | human Yap1 mRNA expression (Yap1 mRNA [2]; 5 μM) | human Yap1 mRNA expression (Yap1 mRNA [3]; 0.08 μM) | human Yap1 mRNA expression (Yap1 mRNA [3]; 0.4 μM) | human Yap1 mRNA expression (Yap1 mRNA [3]; 2 μM) | human Yap1 mRNA expression (Yap1 mRNA [3]; 10 μM) | Antiproliferative effect (cell proliferation, luminescence) (Detroit-562 cells; 0.04 μM) | Antiproliferative effect (cell proliferation, luminescence) (Detroit-562 cells; 0.2 μM) | Antiproliferative effect (cell proliferation, luminescence) (Detroit-562 cells; 1 μM) | Antiproliferative effect (cell proliferation, luminescence) (Detroit-562 cells; 5 μM) | Antiproliferative effect (cell proliferation, luminescence) (BICR56 cells; 0.04 μM) | Antiproliferative effect (cell proliferation, luminescence) (BICR56 cells; 0.2 μM) | Antiproliferative effect (cell proliferation, luminescence) (BICR56 cells; 1 μM) | Antiproliferative effect (cell proliferation, luminescence) (BICR56 cells; 5 μM) | also measured
715487 (kA*kT*kT*dA*d[5mC]*dT*dT*d[5mC]*dA*dT*dA*dG*d[5mC]*kT*kT*kA) [compound 715487] | 83 % UTC | 70 % UTC | 49 % UTC | 30 % UTC | 70 % UTC | 37 % UTC | 26 % UTC | 14 % UTC | 35 % UTC | 23 % UTC | 5 % UTC | 3 % UTC | 92 % UTC | 84 % UTC | 71 % UTC | 52 % UTC | 70 % UTC | 26 % UTC | 9 % UTC | 4 % UTC | human Yap1 mRNA expression (Yap1 mRNA [4]; 0.04 μM): 62 % UTC; human Yap1 mRNA expression (Yap1 mRNA [4]; 0.2 μM): 26 % UTC; human Yap1 mRNA expression (Yap1 mRNA [4]; 1 μM): 9 % UTC; human Yap1 mRNA expression (Yap1 mRNA [4]; 5 μM): 4 % UTC; Antiproliferative effect (cell proliferation, luminescence) (CAL33 cells; 0.04 μM): 89 % UTC; Antiproliferative effect (cell proliferation, luminescence) (CAL33 cells; 0.2 μM): 79 % UTC; Antiproliferative effect (cell proliferation, luminescence) (CAL33 cells; 1 μM): 61 % UTC; Antiproliferative effect (cell proliferation, luminescence) (CAL33 cells; 5 μM): 37 % UTC; human Yap1 mRNA expression (Yap1 mRNA [5]; 0.04 μM): 77 % UTC; human Yap1 mRNA expression (Yap1 mRNA [5]; 0.2 μM): 49 % UTC; human Yap1 mRNA expression (Yap1 mRNA [5]; 1 μM): 22 % UTC; human Yap1 mRNA expression (Yap1 mRNA [5]; 5 μM): 7 % UTC
CGCCGATAAGGTACAC (cEt gapmer, phosphorothioate backbone, further chemistry not given here) [ION 792169, reference compound] | 94 % UTC | 83 % UTC | 87 % UTC | 100 % UTC | 100 % UTC | 108 % UTC | 112 % UTC | 84 % UTC | 95 % UTC | 90 % UTC | 97 % UTC | 88 % UTC | 99 % UTC | 106 % UTC | 100 % UTC | 79 % UTC | 106 % UTC | 100 % UTC | 92 % UTC | 87 % UTC | human Yap1 mRNA expression (Yap1 mRNA [4]; 0.04 μM): 106 % UTC; human Yap1 mRNA expression (Yap1 mRNA [4]; 0.2 μM): 106 % UTC; human Yap1 mRNA expression (Yap1 mRNA [4]; 1 μM): 111 % UTC; human Yap1 mRNA expression (Yap1 mRNA [4]; 5 μM): 102 % UTC; Antiproliferative effect (cell proliferation, luminescence) (CAL33 cells; 0.04 μM): 92 % UTC; Antiproliferative effect (cell proliferation, luminescence) (CAL33 cells; 0.2 μM): 93 % UTC; Antiproliferative effect (cell proliferation, luminescence) (CAL33 cells; 1 μM): 81 % UTC; Antiproliferative effect (cell proliferation, luminescence) (CAL33 cells; 5 μM): 67 % UTC; human Yap1 mRNA expression (Yap1 mRNA [5]; 0.04 μM): 91 % UTC; human Yap1 mRNA expression (Yap1 mRNA [5]; 0.2 μM): 94 % UTC; human Yap1 mRNA expression (Yap1 mRNA [5]; 1 μM): 93 % UTC; human Yap1 mRNA expression (Yap1 mRNA [5]; 5 μM): 98 % UTC

— US11214803B2, “Modulators of YAP1 expression” (Ionis Pharmaceuticals, Inc., priority 2019, dated 2022)
